Data as given in a melting point compilation (Tetko et al.; mined from patent text by program, amines drawn as free bases though some values may be those of a salt).

Compound	melting point [°C]
O=C1CN(c2c(F)cc(N3C[C@H](CNC(=S)Nc4ccccn4)OC3=O)cc2F)CN1	194 to 196
N#Cc1nn(-c2c(Cl)cc(C(F)(F)F)cc2Cl)c(Cl)c1C=C(Br)Br	119 to 120
CC(=O)CC(=S)NCC(=O)N1CCC[C@H]1C(=O)O	> 320
CCSc1nnnn1-c1ccc(Cl)cc1F	76 to 79
NCCc1cccc(N2CCN(c3ccc(CCC(=O)O)cc3)C2=O)c1	> 250
CCCCCCCOc1ccc(CNc2ccc(C(=O)O)cc2)cc1	148 to 152
Cc1ccc(-c2occc2C#N)cc1	66
O=C1NC(=O)C(Cc2ccc(OCCN3c4ccccc4Sc4ccc(C(F)(F)F)cc43)cc2)S1 (centres undefined)	64
Cc1c(Br)c2c(c3c1C(c1ccc(C(C)C)cc1)CO3)CCCC2 (centres undefined)	108 to 109
Cn1ncc(C(N)=O)c1-c1ccco1	116
CCOc1nn(C(=O)NS(=O)(=O)c2c(C)csc2C(=O)OC)c(=O)n1C	169
CCOCc1ncccc1CN(CCn1ccc2oc(C)cc2c1=O)Cc1ccc2c(c1)N(C)C(=O)C(C)(C)C(=O)N2CC	104 to 106
CCOC(=O)C=Cc1ccc(N(CCOC)C(=O)c2ccncc2)cc1	98.4 to 102
Cc1ccc(-c2[nH]c3ccc(Cl)cc3c2-c2ccc(S(C)(=O)=O)cc2)cc1	238 to 240
CC(Oc1ccc2nc(-c3ccccc3OC(N)=O)sc2c1)c1ccccc1C(F)(F)F (centres undefined)	200 to 205
CN(C)C=CC(=O)c1ccccc1	88 to 91
COc1ccc2c(c1OC)C1=NCCN1C1C(c3ccccc3)CCN21 (centres undefined)	171
N#CCc1cn2cccc(OCc3ccccc3)c2n1	148 to 150
CCCc1c(Oc2ccc(C(=O)O)cc2C(=O)O)ccc(C(C)=O)c1O	280 to 283
CCCC(=O)c1ccc(NC(C)=O)cc1	141 to 143
O=C(O)COc1cccc2c1CCC(CCn1cnc(-c3ccccc3)c1-c1ccccc1)C2 (centres undefined)	197
Cc1nn(-c2ccc(C(F)(F)F)cn2)cc1COc1ccc(CCC(=O)O)cc1	195 to 196
C=C1c2ccccc2C(n2cncc2C(=O)OC)C1(C)C (centres undefined)	125 to 126
Nc1nc(-c2ccc(Cl)cc2)nc(N2CCCC2)n1	217 to 219
Cc1ccccc1NC(=O)c1c(C)nn(C)c1N	113 to 115
O=C1CNc2ncc(-c3ccc(C(=O)N4CCC[C@H]4CN4CCCC4)cc3)cc2N1Cc1cc(F)ccc1F	125

Compound	melting point [°C]
CCCC(OC)(C(=O)n1ccnc1)c1ccc(Cl)cc1Cl (centres undefined)	99 to 101
CC(C)c1cc(Oc2ccc(Cl)cc2)nc(C(C)C)c1[N+](=O)[O-]	102 to 104
O=C1c2ccccc2OCN1CCCl	45
CCC(=O)Nc1ccc(Oc2cccc(OC)c2)cc1	79 to 81
Cc1cc(NC(=O)C(C)(C)C)n(C)n1	86 to 88
O=C(CCc1ccccc1)N1C(=O)OC[C@@H]1Cc1ccccc1	92 to 95
COc1cc(SC)ccc1C(=O)c1cnoc1C1CC1	108
CC(C)(C)c1ccc(/C=C/C(=O)Nc2ccc3c(c2)NCC3)cc1	153 to 167
CCCCCCCCCCCCCCCCSCC(COS(C)(=O)=O)NC(=O)OC (centres undefined)	82 to 83
C1=Nc2cccc(-c3ccoc3)c2C12COc1cc3c(cc12)OCO3 (centres undefined)	270 to 272
O=C(O)c1cn(C2CSC2)c2c(F)c(F)c(F)cc2c1=O	172 to 175
CCCOC(=O)C1=C(C)N(C)C(C)=C(C(=O)OCCC)C1c1ccc(Br)cc1	97 to 99
CCOC(=O)C1(CCCN(C)C)CCCCC1(O)c1ccccc1 (centres undefined)	97 to 99
Cc1ccc(S(=O)(=O)N(C)c2ccc(F)cc2[N+](=O)[O-])cc1	93.5 to 94.5
COc1cn(C(C)C(=O)N(C)C)nc1-c1ccccc1 (centres undefined)	96.5 to 98
CC(C)N1CCC(COc2ncc(C(=O)c3ccc(Cl)cc3)n2C)CC1	126 to 127
CCCCCCCOC(=S)SC(Cn1ccnc1)c1ccc(Cl)cc1Cl (centres undefined)	107 to 113
Cc1nc2cnc3ccccc3c2n1CC(C)O (centres undefined)	176 to 177
CNC(=NCCSCc1cc(CN(C)C)ccn1)NC#N	114 to 116
CC(C)(CO)Oc1ccc(CNc2ccc(Cl)cc2)cc1	84 to 91
O=c1[nH]c2ccc(F)cc2n2ccnc12	> 300
CC(C)n1cnc2nc(-c3ccc(Cl)cc3)nn2c1=S	230 to 232
CCC(C)C(NC(=O)C(C)N(C(=O)OC(C)(C)C)C1CCCCC1)C(=O)NC(CC1CCCCC1)C(O)C(O)CC(C)C (centres undefined)	181 to 182
CCCC(=O)Oc1ccc(OC(=O)CCC)c(C#N)c1C#N	86 to 87
Cn1ncnc1COc1nn2c(-c3ccc(F)cc3F)nncc2c1C(C)(C)C	118
CCOC(=O)c1c(C#N)c2c(c3[nH]c4ccccc4c13)CCC2	229 to 231

Compound	melting point [°C]
COc1cc(C(=O)c2ccccc2)cc(C#N)c1OC	98 to 100
CCCCS(=O)(=O)c1ccc(CCc2nccn3c(CC#N)ccc23)cc1	188 to 190
O=C1NCCNC1c1ccc(F)cc1 (racemic)	115
O=C1NC(=O)c2c1c(-c1cc([N+](=O)[O-])cc([N+](=O)[O-])c1)cc1[nH]c3ccc(O)cc3c21	> 330
CC(CCCc1ccc(F)cc1)c1cc(O)c2c(c1)OC(C)(C)c1ccncc1-2 (centres undefined)	72 to 74
CN1CCCC(c2cc3ccccc3c(=O)[nH]2)C1 (centres undefined)	155 to 156
O=c1cc(C(F)(F)F)cnn1-c1cc(Oc2ncccn2)c(Cl)cc1F	156 to 160
COC(=O)c1ncoc1C(C)C	49 to 50
O=C(NC(=O)c1c(F)cccc1Cl)Nc1ccc(C(F)(F)F)c(F)c1	200
COc1ccc(C(=O)CC(C#N)c2ccc3c(c2)OCO3)cc1OC (centres undefined)	159 to 161
Cc1ccc(S(=O)(=O)OCC2Cc3cccc(-c4ccc(C(F)(F)F)cc4)c3O2)cc1 (centres undefined)	116 to 118
OC1CSC(Oc2cncc(-c3c(F)cc(F)cc3F)c2)C(O)C1O (centres undefined)	228
CCOC(=O)c1c(N=[N+]=[N-])[nH]c(=O)c(I)c1Oc1cc(C)cc(C)c1	216 to 218
COc1ccc(CN(CC(=O)NO)S(=O)(=O)c2ccc(OC)cc2)cc1	134 to 136
CCOC(=O)c1csc(-c2cccc([N+](=O)[O-])c2)n1	142 to 145
COc1ccc(CNS(C)(=O)=O)cc1OC	78 to 81
C=CCOc1ccc2cn[nH]c2c1	110 to 112
C#CC1CCC(c2ccc(C3CCC(CCC)CC3)cc2)CC1 (centres undefined)	143
CC(C)(C)OC(=O)N1CCCC1C(=O)Nc1cccc(-c2cc(-c3ccccc3O)nc(NC(=O)c3cccs3)c2C#N)c1 (centres undefined)	167 to 169
O=C(O)CCCCCOc1c(Cl)cc(NC(=O)NC(=O)c2ccccc2Cl)cc1Cl	171 to 173
Cc1ccc2[nH]c3c(cc(-c4ccc(O)cc4)c(=O)n3C)c2c1	186
CCOC(=O)Cc1ncc2c(n1)-c1ccc(Cl)cc1C(c1ccccc1F)=NC2	98 to 103
COc1ccc(Cl)cc1C(=O)NCCc1ccc(-c2cc(C)cs2)c(S(N)(=O)=O)c1	165 to 168
CC(C)c1ccccc1N1/C(=N\N=C/c2ccc(-c3ncn(-c4ccc(OC(F)(F)F)cc4)n3)cc2)SCC1(O)C(F)(F)F (centres undefined)	185 to 187
O=Cc1ccc(CO)cn1	75
C/C=C/CNC(=O)N1CC(Oc2ccc(C(F)(F)F)cc2)C1	157 to 158

Compound	melting point [°C]
CC(NC(=O)c1ccc(N)cc1)C(=O)O (centres undefined)	198 to 199
COc1cc2ccc(C3CO3)cc2cc1OC (centres undefined)	115 to 117
Cc1cc(CC(=O)O)ccc1[N+](=O)[O-]	95
COC(=O)Cc1ccc2c(=O)c3ccccc3ccc2c1	67 to 69
C[C@@H]1N=C(c2ccccc2)c2cc(C#CCCCC(=O)NO)ccc2N(C)C1=O	101 to 103
COc1cc(CC(C)(C)NC(=O)c2ccc(=O)n(-c3ccc4cc(C)ccc4n3)c2)cc2c1OC(C)(C)C2	192 to 193
Cc1cc(N2CCNC(=O)N2)cc(Cl)c1SCc1ccc(Cl)cc1	165 to 167
C=CCOc1c(N)cc2c(C)cc(=O)oc2c1C	146 to 147
C=CCOc1ccc(OC)cc1C(=O)c1oc2ccc(Cl)cc2c1N	115 to 116
CC(CCOc1ccccc1NS(C)(=O)=O)N1CCC(OC(c2ccccc2)c2ccccc2)CC1 (centres undefined)	114 to 116
CS(=O)(=O)OC1Cc2ccccc2C1	75 to 77
COC(=O)c1cnc(N)nc1OC	221
Cc1cc(OCc2ccc(-c3ccc(C(F)(F)F)cc3)nc2C)ccc1SCC(=O)O	168 to 169
Cc1cc(C(C)C(=O)O)ccc1C(=O)c1cccs1 (centres undefined)	100
O=Cc1cc2c3ccccc3ccc2c2sccc12	162
CCOC(=O)CC(=O)Nc1ccc(NC(=O)CC(=O)OCC)c([N+](=O)[O-])c1	96 to 97
O=C(Nc1cccc2[nH]ccc12)c1cc(O)cc(Cl)c1	248
Cc1cc(OCc2ccc(-c3ccc(F)c(C(F)(F)F)c3)nc2C)ccc1OC(C)(C)C(=O)O	141 to 143
Nc1cc(Cl)c(Br)cc1C(=O)O	228 to 230
N#CC(C#N)=C1N(CCCN2CCCCC2)CCN1C1CCN(CCF)CC1	56 to 57
O=C(O)c1cc2cc(Br)cc(Br)c2nc1NC(Cc1ccccc1)C(=O)O (centres undefined)	115 to 117
CCCCCCCC(=O)N1CCc2nnc(NN=C(C)C)cc2C1	118 to 121
Cc1nc(-c2ccc(C#N)cc2)sc1C(=O)N1CCO[C@@](Cn2cncn2)(c2ccc(F)cc2F)[C@H]1C	150 to 160
CCCC(CC(CC)SC)CC1OC(n2cnc3c(N)ncnc32)C(O)C1O (centres undefined)	78 to 80
N#CC=C1CCN(c2ccc(N3C[C@H](CNC(=O)C(F)F)OC3=O)cc2F)CC1	162 to 164
O=C(COc1cccc2cccnc12)c1ccccc1	124 to 125
